According to patent US9422566B2, “Gene cluster for biosynthesis of griselimycin and methylgriselimycin” (SANOFI, priority 2011, dated 2016):

Legend:
Type in all cases: biochemical, Streptomyces DSM 22643
Conditions in all cases: in vitro ATP-[32P]PPi exchange, amino acid 5 mM, 30° C., nine substrates tested
[1] = test system: A domain of module 8 (A8) of NRPS-2; experiment: ATP-PPi exchange assay, substrate specificity of A domain A8
Procedure: (§1) In order to gain insight into the specificity of the A domains of modules 2, 5 and 8, the domains were recombinantly produced and their specificity analysed via an ATP/PPi exchange assay in vitro.
(§2) In order to directly investigate A domain substrate specificity, we aimed to express A domains A2, A5 and A8 from the griselimycin pathway as N-terminally His6-tagged proteins from pET28b (+). […]
(§3) Substrate specificity of the 3 purified adenylation domains was evaluated using the established ATP-PPi exchange assay (Mootz and Marahiel. 1997, Thomas et al., 2002). […] As a control, each protein was incubated in the absence of added amino acid, to determine the radioactivity background reaction. […]
(§4) To determine substrate specificity, ATP-[^32P]PPi reactions (100 μl) containing Tris-HCl (pH 7.5, 75 mM), MgCl2 (10 mM), […] (5 mM), amino acid (5 mM), and protein (2 μg) were performed at 30° C. ^32P-tetrasodium pyrophosphate was obtained from Perkin Elmer (NEN #NEX019). […] The charcoal was pelleted by centrifugation prior to being washed twice with the washing solution 0.1 M Na4P2O7 and 0.35 M perchloric acid in H2O), resuspended in H2O (500 μl), and counted by liquid scintillation (Beckman LS6500).

[2] = test system: A domain of module 5 (A5) of NRPS-1; experiment: ATP-PPi exchange assay, substrate specificity of A domain A5
Procedure: as §1, §2, §3, §4

[3] = test system: A domain of module 2 (A2) of NRPS-1; experiment: ATP-PPi exchange assay, substrate specificity of A domain A2
Procedure: as §1, §2, §3, §4

SMILES	specificity of the domain A8 for the substrate [1]	specificity of the domain A5 for the substrate [2]	specificity of the domain A2 for the substrate [3]
C[C@H]1CN[C@H](C(=O)O)C1 [(2S,4R)-4-methylproline]	highest	highest	highest
O=C(O)[C@@H]1CCCN1 [L-proline]	high specificity		
